Substitutions are numbered along the chain they refer to.
Assays:
Assay in all cases: HPLC, […] nm; lactonase buffer kinetic assay (method of Thomas et al.)
Format in all cases: biochemical
Settings in all cases: 30 °C; lactone hydrolysis
Est816 [1] = target: T1, Est816 (uncultured bacterium, UniProt Z9COY3ZA92, V216A/N238K, form not given)
T1 construct: full length, C-terminal 6xHis tag (pET-21b), E. coli BL21(DE3); catalytic triad S93, D214, H242
T1 sequence (Z9COY3ZA92 1-260 V216A/N238K): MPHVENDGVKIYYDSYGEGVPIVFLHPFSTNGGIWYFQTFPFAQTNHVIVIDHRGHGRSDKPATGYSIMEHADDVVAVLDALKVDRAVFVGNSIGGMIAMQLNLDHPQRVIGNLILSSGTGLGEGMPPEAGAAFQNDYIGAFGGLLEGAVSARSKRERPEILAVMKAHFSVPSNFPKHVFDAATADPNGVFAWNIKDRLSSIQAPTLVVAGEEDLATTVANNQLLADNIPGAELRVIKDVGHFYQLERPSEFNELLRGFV

Est816 [2] = target: T2, Est816 (uncultured bacterium, UniProt Z9COY3ZA92, A133F/K155N/V216F, form not given)
T2 construct: full length, C-terminal 6xHis tag (pET-21b), E. coli BL21(DE3); catalytic triad S93, D214, H242
T2 sequence (Z9COY3ZA92 1-260 A133F/K155N/V216F): T1 sequence (Z9COY3ZA92 1-260 V216A/N238K) with A133F, K155N, A216F, K238N

Est816 [3] = target: T3, Est816 (uncultured bacterium, UniProt Z9COY3ZA92, V216A, form not given)
T3 construct: full length, C-terminal 6xHis tag (pET-21b), E. coli BL21(DE3); catalytic triad S93, D214, H242
T3 sequence (Z9COY3ZA92 1-260 V216A): T1 sequence (Z9COY3ZA92 1-260 V216A/N238K) with K238N

Est816 [4] = target: T4, Est816 (uncultured bacterium, UniProt Z9COY3ZA92, A133V/K155N, form not given)
T4 construct: full length, C-terminal 6xHis tag (pET-21b), E. coli BL21(DE3); catalytic triad S93, D214, H242
T4 sequence (Z9COY3ZA92 1-260 A133V/K155N): T1 sequence (Z9COY3ZA92 1-260 V216A/N238K) with A133V, K155N, A216V, K238N

Est816 [5] = target: T5, Est816 (uncultured bacterium, UniProt Z9COY3ZA92, P27G/F28N, form not given)
T5 construct: full length, C-terminal 6xHis tag (pET-21b), E. coli BL21(DE3); catalytic triad S93, D214, H242
T5 sequence (Z9COY3ZA92 1-260 P27G/F28N): T1 sequence (Z9COY3ZA92 1-260 V216A/N238K) with P27G, F28N, A216V, K238N

Est816 [6] = target: T6, Est816 (uncultured bacterium, UniProt Z9COY3ZA92, N238K, form not given)
T6 construct: full length, C-terminal 6xHis tag (pET-21b), E. coli BL21(DE3); catalytic triad S93, D214, H242
T6 sequence (Z9COY3ZA92 1-260 N238K): T1 sequence (Z9COY3ZA92 1-260 V216A/N238K) with A216V

Est816 [7] = target: T7, Est816 (uncultured bacterium, UniProt Z9COY3ZA92, L122A, form not given)
T7 construct: full length, C-terminal 6xHis tag (pET-21b), E. coli BL21(DE3); catalytic triad S93, D214, H242
T7 sequence (Z9COY3ZA92 1-260 L122A): T1 sequence (Z9COY3ZA92 1-260 V216A/N238K) with L122A, A216V, K238N

Km (Est816 [1]): 1140 ± 101 µM
Km (Est816 [2]): 759 ± 62.2 µM
Km (Est816 [3]): 5800 ± 289 µM
Km (Est816 [4]): 3490 ± 146 µM
Km (Est816 [5]): 3090 ± 198 µM
Km (Est816 [6]): 210 ± 15.5 µM
Km (Est816 [7]): 105 ± 7.2 µM
Compound: CCCCCCCC(=O)NC1CCOC1=O (racemic) [C8-HSL, N-octanoyl-DL-homoserine lactone]
